Measurements published in patent EP4563146A1 (IRBM S.P.A., priority 2023, dated 2025).
Like-named read-outs stand apart in the source and are kept apart here.

Tested on: ZIKV replicon
Test: ZIKV replication inhibition assay (NanoLuc replicon in Vero cells)
Conditions: Zika virus, Vero, 72 h
[1] = read-out: ZIKA Cell_Nanoluc, Vero cells with stable ZIKV replicon, 72 h, Nano-Glo readout

Question: How did the EC50 [1] turn out when `COc1ccc(CC(=O)Nc2cc(NC(=O)[N-]c3c[n+](Cc4ccc(-c5cnc(OC)nc5C)cc4)no3)cc(C(F)(F)F)c2)cc1` [Example 16, (3-(4-(2-Methoxy-4-methylpyrimidin-5-yl)benzyl)-1,2,3-oxadiazol-3-ium-5-yl)((3-(2-(4-methoxyphenyl)acetamido)-5-(trifluoromethyl)phenyl)carbamoyl)amide] was run?
Answer: Its EC50 is 1000 to 20000 nM.

Question: With `O=C([N-]c1c[n+](Cc2ccccn2)no1)Nc1cc(NC(=O)[C@H]2C[C@](O)(c3ccccn3)C2)cc(C(F)(F)F)c1` [Example 69] as the compound, how does the EC50 (read-out: ZIKA Cell_Nanoluc) read?
Answer: The EC50 was over 20000 nM.

Question: For `N#Cc1ccc2nc(C(=O)Nc3cc(NC(=O)[N-]c4c[n+](Cc5ccccn5)no4)cc(C(F)(F)F)c3)cn2c1` [Example 37], which EC50 (read-out: ZIKA Cell_Nanoluc) is on record?
Answer: Its EC50 is 1000 to 20000 nM.

Question: Which EC50 (read-out: ZIKA Cell_Nanoluc) does the source give for `O=C([N-]c1c[n+](Cc2ccccn2)no1)Nc1cc(NC(=O)C2CC(Cc3ccccc3)C2)cc(C(F)(F)F)c1` (stereo not shown) [Example 68] here?
Answer: Its EC50 is 1000 to 20000 nM.

Question: With `O=C(Cc1ccccc1)Nc1cc(NC(=O)[N-]c2c[n+](Cc3ccc(CCO)cc3)no2)cc(C(F)(F)F)c1` [Example 111, (3-(4-(2-Hydroxyethyl)benzyl)-1,2,3-oxadiazol-3-ium-5-yl)((3-(2-phenylacetamido)-5-(trifluoromethyl)phenyl)carbamoyl)amide] as the compound, how does the EC50 [1] read?
Answer: The EC50 was 100 to 1000 nM.

Question: Which EC50 [1] does the source give for `COc1ncc(-c2ccc(C[n+]3cc([N-]C(=O)Nc4cc(N)cc(C(F)(F)F)c4)on3)cc2)c(C)n1` [Example 3, ((3-Amino-5-(trifluoromethyl)phenyl)carbamoyl)(3-(4-(2-methoxy-4-methylpyrimidin-5-yl)benzyl)-1,2,3-oxadiazol-3-ium-5-yl)amide] here?
Answer: Its EC50 is 100 to 1000 nM.

Question: How did the EC50 [1] turn out when `COC(=O)c1ccc(C[n+]2cc([N-]C(=O)Nc3cc(NC(=O)Cc4ccccc4)cc(C(F)(F)F)c3)on2)cc1` [Example 98, (3-(4-(Methoxycarbonyl)benzyl)-1,2,3-oxadiazol-3-ium-5-yl)((3-(2-phenyl-acetamido)-5-(trifluoromethyl)phenyl)carbamoyl)amide] was run?
Answer: The EC50 was 1000 to 20000 nM.

Question: How did the EC50 [1] turn out when `O=C([N-]c1c[n+](Cc2ccccn2)no1)Nc1cc(NC(=O)c2ccn3c2COCC3)cc(C(F)(F)F)c1` [Example 81, ((3-(3,4-Dihydro-1H-pyrrolo[2,1-c][1,4]oxazine-8-carboxamido)-5-(trifluoromethyl)-phenyl)carbamoyl)(3-(pyridin-2-ylmethyl)-1,2,3-oxadiazol-3-ium-5-yl)amide] was run?
Answer: Its EC50 is 1000 to 20000 nM.

Question: `O=C([N-]c1c[n+](Cc2ccccn2)no1)Nc1cc(NC(=O)C2Cc3ccccc32)cc(C(F)(F)F)c1` (stereo not shown) [Example 47] was tested. Which EC50 (read-out: ZIKA Cell_Nanoluc) did it give?
Answer: The EC50 was 1000 to 20000 nM.

Question: How did the EC50 (read-out: ZIKA Cell_Nanoluc) turn out when `O=C([N-]c1c[n+](Cc2ccccn2)no1)Nc1cc(NC(=O)c2cccc(Oc3ccccc3)c2)cc(C(F)(F)F)c1` [Example 31] was run?
Answer: Its EC50 is 1000 to 20000 nM.

Question: `O=C(Cc1ccccc1)Nc1cc(NC(=O)[N-]c2c[n+](Cc3ccc(CO)cn3)no2)cc(C(F)(F)F)c1` [Example 116, (3-((5-(Hydroxymethyl)pyridin-2-yl)methyl)-1,2,3-oxadiazol-3-ium-5-yl)((3-(2-phenylacetamido)-5-(trifluoromethyl)phenyl)carbamoyl)amide] was tested. Which EC50 [1] did it give?
Answer: Its EC50 is 1000 to 20000 nM.

Question: For `O=C(Cc1ccccc1)Nc1cc(NC(=O)[N-]c2c[n+](Cc3ccccc3)no2)cc(C(F)(F)F)c1` [Example 28, (3-Benzyl-1,2,3-oxadiazol-3-ium-5-yl)((3-(2-phenylacetamido)-5-(trifluoro-methyl)phenyl)carbamoyl)amide], which EC50 [1] is on record?
Answer: Its EC50 is 1000 to 20000 nM.

Question: How did the EC50 [1] turn out when `CCOC(=O)CN1CCC(C[n+]2cc([N-]C(=O)Nc3cc(NC(=O)Cc4ccccc4)cc(C(F)(F)F)c3)on2)CC1` [Example 140, (3-((1-(2-Ethoxy-2-oxoethyl)piperidin-4-yl)methyl)-1,2,3-oxadiazol-3-ium-5-yl)((3-(2-phenylacetamido)-5-(trifluoromethyl)phenyl)-carbamoyl)amide] was run?
Answer: The EC50 was 100 to 1000 nM.

Question: For `COc1ncc(-c2ccc(C[n+]3cc([N-]C(=O)Nc4cc(NC(=O)Cc5ccccc5Cl)cc(C(F)(F)F)c4)on3)cc2)c(C)n1` [Example 21, ((3-(2-(2-Chlorophenyl)acetamido)-5-(trifluoromethyl)phenyl)carbamoyl)(3-(4-(2-methoxy-4-methylpyrimidin-5-yl)benzyl)-1,2,3-oxadiazol-3-ium-5-yl)amide], which EC50 [1] is on record?
Answer: Its EC50 is 100 to 1000 nM.

Question: `O=C([N-]c1c[n+](Cc2ccccn2)no1)Nc1cc(NCCc2ccccc2)cc(C(F)(F)F)c1` [Example 53, ((3-(Phenethylamino)-5-(trifluoromethyl)-phenyl)carbamoyl)(3-(pyridin-2-ylmethyl)-1,2,3-oxadiazol-3-ium-5-yl)amide] was tested. Which EC50 [1] did it give?
Answer: Its EC50 is 1000 to 20000 nM.

Question: How did the EC50 [1] turn out when `COC(=O)Cc1ccc(C[n+]2cc([N-]C(=O)Nc3cc(NC(=O)Cc4ccccc4)cc(C(F)(F)F)c3)on2)cc1` [Example 109, (3-(4-(2-Methoxy-2-oxoethyl)benzyl)-1,2,3-oxadiazol-3-ium-5-yl)((3-(2-phenylacetamido)-5-(trifluoromethyl)phenyl)carbamoyl)amide] was run?
Answer: The EC50 was 100 to 1000 nM.

Question: `CN1Cc2cc(C(=O)Nc3cc(NC(=O)[N-]c4c[n+](Cc5ccccn5)no4)cc(C(F)(F)F)c3)sc2C1` [Example 39] was tested. Which EC50 (read-out: ZIKA Cell_Nanoluc) did it give?
Answer: The EC50 was 1000 to 20000 nM.

Question: Which EC50 (read-out: ZIKA Cell_Nanoluc) does the source give for `Cc1oc(-c2ccccc2)nc1CC(=O)Nc1cc(NC(=O)[N-]c2c[n+](Cc3ccccn3)no2)cc(C(F)(F)F)c1` [Example 33] here?
Answer: The EC50 was 1000 to 20000 nM.

Question: For `CC(C)n1ccc(C(=O)Nc2cc(NC(=O)[N-]c3c[n+](Cc4ccccn4)no3)cc(C(F)(F)F)c2)n1` [Example 48], which EC50 (read-out: ZIKA Cell_Nanoluc) is on record?
Answer: The EC50 was 1000 to 20000 nM.

Question: `O=C([N-]c1c[n+](Cc2ccccn2)no1)Nc1cc(NC(=O)c2ccnn2-c2ccccc2)cc(C(F)(F)F)c1` [Example 34] was tested. Which EC50 (read-out: ZIKA Cell_Nanoluc) did it give?
Answer: Its EC50 is 1000 to 20000 nM.

Question: For `O=C([N-]c1c[n+](Cc2ccccn2)no1)Nc1cc(NC(=O)C2CC2c2ccccc2)cc(C(F)(F)F)c1` (stereo not shown) [Example 50], which EC50 (read-out: ZIKA Cell_Nanoluc) is on record?
Answer: The EC50 was 100 to 1000 nM.

Question: Which EC50 (read-out: ZIKA Cell_Nanoluc) does the source give for `N[C@H]1CC[C@H](C[n+]2cc([N-]C(=O)Nc3cc(N4CCC(c5ccccc5)C4=O)cc(C(F)(F)F)c3)on2)CC1` (stereo partly drawn) [Example 132, (3-(((1R,4R)-4-Aminocyclohexyl)methyl)-1,2,3-oxadiazol-3-ium-5-yl)((3-(2-oxo-3-phenylpyrrolidin-1-yl)-5-(trifluoromethyl)-phenyl)carbamoyl)amide] here?
Answer: The EC50 was over 20000 nM.

Question: How did the EC50 [1] turn out when `O=C([N-]c1c[n+](Cc2ccccn2)no1)Nc1cc(NC(=O)C2CCn3cncc3C2)cc(C(F)(F)F)c1` (stereo not shown) [Example 80, (3-(Pyridin-2-ylmethyl)-1,2,3-oxadiazol-3-ium-5-yl)((3-(5,6,7,8-tetrahydroimidazo [1,5-a]pyridine-7-carboxamido)-5-(trifluoromethyl)phenyl)carbamoyl)amide] was run?
Answer: The EC50 was over 20000 nM.

Question: `CN1CCCC(C[n+]2cc([N-]C(=O)Nc3cc(NC(=O)Cc4ccccc4)cc(C(F)(F)F)c3)on2)C1` (stereo not shown) [Example 117, (3-((1-Methylpiperidin-3-yl)methyl)-1,2,3-oxadiazol-3-ium-5-yl)((3-(2-phenylacetamido)-5-(trifluoromethyl)phenyl)carbamoyl)amide] was tested. Which EC50 [1] did it give?
Answer: The EC50 was 1000 to 20000 nM.

Question: Which EC50 (read-out: ZIKA Cell_Nanoluc) does the source give for `O=C([N-]c1c[n+](Cc2ccccn2)no1)Nc1cc(NC(=O)c2ccc(CN3CCOCC3)o2)cc(C(F)(F)F)c1` [Example 30] here?
Answer: Its EC50 is 1000 to 20000 nM.

Question: Which EC50 (read-out: ZIKA Cell_Nanoluc) does the source give for `O=C([N-]c1c[n+](Cc2ccccn2)no1)Nc1cc(NC(=O)C2CC(F)(F)C23CCC3)cc(C(F)(F)F)c1` (stereo not shown) [Example 85] here?
Answer: Its EC50 is 1000 to 20000 nM.

Question: How did the EC50 [1] turn out when `O=C(Cc1ccccc1)Nc1cc(NC(=O)[N-]c2c[n+](Cc3ccc(CO)cn3)no2)cc(C2CC2)c1` [Example 129, ((3-Cyclopropyl-5-(2-phenylacetamido)phenyl)-carbamoyl)(3-((5-(hydroxymethyl)pyridin-2-yl)methyl)-1,2,3-oxadiazol-3-ium-5-yl)amide] was run?
Answer: The EC50 was 1000 to 20000 nM.

Question: Which EC50 (read-out: ZIKA Cell_Nanoluc) does the source give for `O=C([N-]c1c[n+](Cc2ccccn2)no1)Nc1cc(NC(=O)c2ccon2)cc(C(F)(F)F)c1` [Example 44] here?
Answer: The EC50 was 1000 to 20000 nM.
